Test results: ChEMBL document CHEMBL5143607, “Discovery and structure-activity relationships of a novel oxazolidinone class of bacterial type II topoisomerase inhibitors” (Bioorg Med Chem Lett, 2022)
≈ marks a conversion by molar mass, not a printed value.

Assays:
[1] = Cytotoxicity against human HepG2 cells assessed as reduction in cell viability for 24 hrs by Celltiter-Glo assay; assay type: toxicity, cell-based
Acinetobacter baumannii = test: Antibacterial activity against Acinetobacter baumannii NCTC 13420 assessed as bacterial growth inhibition by CLSI protocol based assay; assay type: functional
Klebsiella pneumoniae = test: Antibacterial activity against Klebsiella pneumoniae ATCC 700603 assessed as bacterial growth inhibition by CLSI protocol based assay; assay type: functional
Pseudomonas aeruginosa = test: Antibacterial activity against Pseudomonas aeruginosa ATCC 27853 assessed as bacterial growth inhibition by CLSI protocol based assay; assay type: functional
Escherichia coli [2] = test: Antibacterial activity against Escherichia coli W4573 assessed as bacterial growth inhibition by CLSI protocol based assay; assay type: functional
Escherichia coli [3] = test: Antibacterial activity against Escherichia coli N43 assessed as bacterial growth inhibition by CLSI protocol based assay; assay type: functional
Staphylococcus aureus = test: Antibacterial activity against Staphylococcus aureus ATCC 29213 assessed as bacterial growth inhibition by CLSI protocol based assay; assay type: functional
[4] = target: Voltage-gated inwardly rectifying potassium channel KCNH2 (Homo sapiens, UniProt Q12809); test: Inhibition of human ERG by Ionworks electrophysiology assay; assay type: toxicity
Sequence of Voltage-gated inwardly rectifying potassium channel KCNH2 (Q12809 whole entry): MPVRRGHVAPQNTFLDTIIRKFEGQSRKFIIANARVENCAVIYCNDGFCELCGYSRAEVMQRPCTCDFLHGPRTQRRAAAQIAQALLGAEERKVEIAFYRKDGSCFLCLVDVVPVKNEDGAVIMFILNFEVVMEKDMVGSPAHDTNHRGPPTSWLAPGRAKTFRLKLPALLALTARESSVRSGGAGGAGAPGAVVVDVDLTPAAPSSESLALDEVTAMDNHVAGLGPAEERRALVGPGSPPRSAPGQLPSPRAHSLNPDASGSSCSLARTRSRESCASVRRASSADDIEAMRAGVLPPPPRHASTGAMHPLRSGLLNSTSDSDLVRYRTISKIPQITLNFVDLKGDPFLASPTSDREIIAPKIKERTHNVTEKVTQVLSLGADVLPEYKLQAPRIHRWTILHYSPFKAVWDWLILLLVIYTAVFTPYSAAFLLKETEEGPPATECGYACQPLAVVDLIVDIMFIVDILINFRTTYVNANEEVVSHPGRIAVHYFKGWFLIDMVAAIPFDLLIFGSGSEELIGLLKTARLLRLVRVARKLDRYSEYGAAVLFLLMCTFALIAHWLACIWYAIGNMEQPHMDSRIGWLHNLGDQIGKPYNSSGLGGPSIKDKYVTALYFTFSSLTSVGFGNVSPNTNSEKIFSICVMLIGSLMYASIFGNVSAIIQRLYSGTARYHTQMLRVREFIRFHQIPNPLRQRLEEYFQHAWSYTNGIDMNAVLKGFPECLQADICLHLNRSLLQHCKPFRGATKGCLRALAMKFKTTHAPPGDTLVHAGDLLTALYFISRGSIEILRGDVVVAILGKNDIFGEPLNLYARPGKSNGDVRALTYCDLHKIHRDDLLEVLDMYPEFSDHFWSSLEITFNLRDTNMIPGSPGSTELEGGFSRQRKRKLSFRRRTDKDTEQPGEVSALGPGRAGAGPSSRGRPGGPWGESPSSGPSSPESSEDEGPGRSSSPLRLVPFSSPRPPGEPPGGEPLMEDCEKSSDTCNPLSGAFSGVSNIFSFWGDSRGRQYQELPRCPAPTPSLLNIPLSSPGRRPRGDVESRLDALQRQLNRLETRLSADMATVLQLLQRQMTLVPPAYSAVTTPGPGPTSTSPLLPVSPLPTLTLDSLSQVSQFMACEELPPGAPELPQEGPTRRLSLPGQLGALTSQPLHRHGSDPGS

[5] = Lipophilicity, logD of the compound by shake flask assay; assay type: physicochemical; details: octanol/water
[6] = Protein binding in human plasma by equilibrium dialysis assay; assay type: ADME, cell-free; details: read-out: PPB (converted)
DNA gyrase = DNA gyrase (Escherichia coli, UniProt P0AES4+P0AES6); test: Inhibition of Escherichia coli DNA gyrase supercoiling activity; assay type: protein-complex assay
[7] = Inhibition of Escherichia coli topoisomerase 4 assessed as reduction in decatenation
[8] = Intrinsic clearance in mouse liver microsomes in presence of NADPH and measured upto 45 mins; assay type: ADME, Microsome; details: read-out: CLH
[9] = Intrinsic clearance in human liver microsomes in presence of NADPH and measured upto 45 mins; assay type: ADME, Microsome; details: read-out: CLH
[10] = Kinetic solubility of compound; assay type: physicochemical; details: read-out: Kinetic_solubility
[11] = Plasma protein binding in mouse assessed as free fraction by equilibrium dialysis assay; assay type: ADME, cell-free
[12] = target: DNA topoisomerase 2-alpha (Homo sapiens, UniProt P11388); test: Inhibition of human topoisomerase 2 assessed as reduction in decatenation
Sequence of DNA topoisomerase 2-alpha (P11388 whole entry): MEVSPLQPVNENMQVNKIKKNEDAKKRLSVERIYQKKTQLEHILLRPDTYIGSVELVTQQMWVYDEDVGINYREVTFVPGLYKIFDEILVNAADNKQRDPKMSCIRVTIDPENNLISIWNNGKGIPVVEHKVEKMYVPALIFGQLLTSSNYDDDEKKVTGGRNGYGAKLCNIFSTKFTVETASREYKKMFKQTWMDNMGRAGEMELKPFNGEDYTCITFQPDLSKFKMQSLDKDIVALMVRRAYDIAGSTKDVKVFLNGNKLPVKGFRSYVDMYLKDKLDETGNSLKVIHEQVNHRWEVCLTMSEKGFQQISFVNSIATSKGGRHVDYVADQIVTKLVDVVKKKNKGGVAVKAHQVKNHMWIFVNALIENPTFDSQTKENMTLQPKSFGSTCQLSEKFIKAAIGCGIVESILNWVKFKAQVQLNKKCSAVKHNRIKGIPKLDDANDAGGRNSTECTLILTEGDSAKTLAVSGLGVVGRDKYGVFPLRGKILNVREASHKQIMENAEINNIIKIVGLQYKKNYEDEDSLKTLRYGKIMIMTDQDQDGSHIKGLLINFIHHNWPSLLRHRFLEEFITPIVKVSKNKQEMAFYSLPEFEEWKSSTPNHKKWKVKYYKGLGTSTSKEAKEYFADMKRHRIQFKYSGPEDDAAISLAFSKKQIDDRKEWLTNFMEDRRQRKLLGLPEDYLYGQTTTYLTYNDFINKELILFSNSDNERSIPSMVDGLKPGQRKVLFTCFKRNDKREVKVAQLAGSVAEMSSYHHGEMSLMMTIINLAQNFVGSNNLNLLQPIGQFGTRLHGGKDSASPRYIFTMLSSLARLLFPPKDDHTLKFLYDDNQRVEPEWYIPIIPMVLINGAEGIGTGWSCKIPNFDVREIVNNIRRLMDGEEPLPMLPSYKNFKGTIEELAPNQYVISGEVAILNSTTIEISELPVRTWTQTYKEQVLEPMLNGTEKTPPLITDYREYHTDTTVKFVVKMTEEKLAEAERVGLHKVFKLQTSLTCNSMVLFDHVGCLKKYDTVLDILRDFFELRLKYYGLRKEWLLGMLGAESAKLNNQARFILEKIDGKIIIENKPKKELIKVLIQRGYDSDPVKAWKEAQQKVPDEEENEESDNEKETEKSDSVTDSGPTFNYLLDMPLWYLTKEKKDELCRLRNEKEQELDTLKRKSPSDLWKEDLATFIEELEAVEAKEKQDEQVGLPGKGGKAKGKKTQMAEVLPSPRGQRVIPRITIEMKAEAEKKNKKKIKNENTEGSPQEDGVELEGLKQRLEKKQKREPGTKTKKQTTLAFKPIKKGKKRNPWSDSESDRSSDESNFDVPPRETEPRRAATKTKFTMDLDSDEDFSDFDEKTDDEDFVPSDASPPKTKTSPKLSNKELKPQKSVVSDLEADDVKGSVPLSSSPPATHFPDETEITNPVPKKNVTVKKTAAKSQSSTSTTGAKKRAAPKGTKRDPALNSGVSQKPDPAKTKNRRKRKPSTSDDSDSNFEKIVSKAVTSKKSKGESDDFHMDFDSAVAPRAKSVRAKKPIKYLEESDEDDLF

Escherichia coli [13] = test: Resistance development in Escherichia coli ATCC25922 assessed as spontaneous resistance frequency at 4 times MIC by resistance development assay; assay type: functional
hERG (KCNH2) = hERG (KCNH2) (Homo sapiens, UniProt Q12809); test: Inhibition of human ERG at 100 uM by Ionworks electrophysiology assay; assay type: toxicity
Sequence of hERG (KCNH2) (Q12809 whole entry): as the sequence (Q12809 whole entry) above

[14] = Protein binding in mouse plasma by equilibrium dialysis assay; assay type: ADME, cell-free; details: read-out: PPB (converted)

Compound: COc1ccc2ccc(=O)n(CCN[C@@H]3CC[C@@H]4[C@@H](C3)OC(=O)N4c3ccc4c(n3)NC(=O)CO4)c2n1
- IC50 at 24 h [1]: 64 µg/mL (≈ 126 µM)
- MIC (Acinetobacter baumannii): 0.06 µg/mL (≈ 0.118 µM)
- MIC (Klebsiella pneumoniae): 1 µg/mL (≈ 1.97 µM)
- MIC (Pseudomonas aeruginosa): 0.25 µg/mL (≈ 0.494 µM)
- MIC (Escherichia coli [2]): 0.03 µg/mL (≈ 0.0592 µM)
- MIC (Escherichia coli [3]): < 0.004 µg/mL
- MIC (Staphylococcus aureus): 0.03 µg/mL (≈ 0.0592 µM)
- IC50 [4]: 10 µM
- logD [5]: 1.8
- fraction unbound [6]: 0.947

Compound: COc1ccc2ncc(=O)n(CCN[C@H]3CC[C@H]4[C@H](C3)OC(=O)N4c3ccc4c(n3)NC(=O)CO4)c2n1
- IC50 at 24 h [1]: > 64 µg/mL
- MIC (Acinetobacter baumannii): 0.06 µg/mL (≈ 0.118 µM)
- MIC (Klebsiella pneumoniae): 4 µg/mL (≈ 7.88 µM)
- MIC (Pseudomonas aeruginosa): 4 µg/mL (≈ 7.88 µM)
- MIC (Escherichia coli [2]): 0.25 µg/mL (≈ 0.493 µM)
- MIC (Escherichia coli [3]): ≤ 0.008 µg/mL
- MIC (Staphylococcus aureus): 0.015 µg/mL (≈ 0.0296 µM)
- IC50 [4]: 7 µM
- logD [5]: 1.6

Compound: COc1ncc2ccc(=O)n(CCN[C@H]3CC[C@H]4[C@H](C3)OC(=O)N4c3ccc4c(n3)NC(=O)CO4)c2n1
- MIC (Acinetobacter baumannii): 3.2 µg/mL (≈ 6.31 µM)
- MIC (Klebsiella pneumoniae): > 64 µg/mL
- MIC (Pseudomonas aeruginosa): > 64 µg/mL
- MIC (Escherichia coli [2]): 32 µg/mL (≈ 63.1 µM)
- MIC (Escherichia coli [3]): 1 µg/mL (≈ 1.97 µM)
- MIC (Staphylococcus aureus): 2 µg/mL (≈ 3.94 µM)
- logD [5]: 1.79

Compound: O=C1COc2ccc(N3C(=O)O[C@H]4C[C@@H](NCCCn5c(=O)cnc6ccc(F)cc65)CC[C@@H]43)nc2N1
- IC50 at 24 h [1]: > 128 µg/mL
- MIC (Acinetobacter baumannii): 0.12 µg/mL (≈ 0.236 µM)
- MIC (Klebsiella pneumoniae): 2 µg/mL (≈ 3.93 µM)
- MIC (Pseudomonas aeruginosa): 1 µg/mL (≈ 1.97 µM)
- MIC (Escherichia coli [2]): 0.12 µg/mL (≈ 0.236 µM)
- MIC (Escherichia coli [3]): 0.25 µg/mL (≈ 0.492 µM)
- MIC (Staphylococcus aureus): 0.25 µg/mL (≈ 0.492 µM)
- IC50 [4]: 13 µM
- logD [5]: 1.26

Compound: COc1cnc2ccc(=O)n(CCCN[C@H]3CC[C@H]4[C@H](C3)OC(=O)N4c3ccc4c(n3)NC(=O)CO4)c2c1
- IC50 (DNA gyrase): 0.46 µM
- IC50 [7]: 0.015 µM
- IC50 at 24 h [1]: > 64 µg/mL
- MIC (Acinetobacter baumannii): 0.5 µg/mL (≈ 0.961 µM)
- MIC (Klebsiella pneumoniae): 8 µg/mL (≈ 15.4 µM)
- MIC (Pseudomonas aeruginosa): 2 µg/mL (≈ 3.84 µM)
- MIC (Escherichia coli [2]): 0.25 µg/mL (≈ 0.48 µM)
- MIC (Escherichia coli [3]): 0.008 µg/mL (≈ 0.0154 µM)
- MIC (Staphylococcus aureus): 0.06 µg/mL (≈ 0.115 µM)
- IC50 [4]: > 100 µM
- logD [5]: 0.94
- microsomal CLint [8]: 9 µL/min/mg
- microsomal CLint [9]: < 3 µL/min/mg
- solubility kinetic [10]: > 100 µM
- fraction unbound [11]: > 0.3
- IC50 [12]: > 100 µM
- Activity (Escherichia coli [13]): 3.2 10^-7No_unit

Compound: N#Cc1ccc2ccc(=O)n(CCCN[C@H]3CC[C@H]4[C@H](C3)OC(=O)N4c3ccc4c(n3)NC(=O)CO4)c2c1
- IC50 at 24 h [1]: 55 µg/mL (≈ 107 µM)
- MIC (Acinetobacter baumannii): 0.12 µg/mL (≈ 0.233 µM)
- MIC (Klebsiella pneumoniae): 2 µg/mL (≈ 3.89 µM)
- MIC (Pseudomonas aeruginosa): 1 µg/mL (≈ 1.94 µM)
- MIC (Escherichia coli [2]): 0.06 µg/mL (≈ 0.117 µM)
- MIC (Escherichia coli [3]): ≤ 0.016 µg/mL
- MIC (Staphylococcus aureus): 0.06 µg/mL (≈ 0.117 µM)
- IC50 [4]: 7 µM
- logD [5]: 1.03

Compound: COc1ccc2ccc(=O)n(CCCN[C@H]3CC[C@H]4[C@H](C3)OC(=O)N4c3ccc4c(n3)NC(=O)CO4)c2n1
- IC50 at 24 h [1]: 40 µg/mL (≈ 76.8 µM)
- MIC (Acinetobacter baumannii): 0.06 µg/mL (≈ 0.115 µM)
- MIC (Klebsiella pneumoniae): 8 µg/mL (≈ 15.4 µM)
- MIC (Pseudomonas aeruginosa): 4 µg/mL (≈ 7.68 µM)
- MIC (Escherichia coli [2]): 0.25 µg/mL (≈ 0.48 µM)
- MIC (Escherichia coli [3]): ≤ 0.002 µg/mL
- MIC (Staphylococcus aureus): 0.015 µg/mL (≈ 0.0288 µM)
- inhibition at 100 µM (hERG (KCNH2)): 97%
- logD [5]: 1.61

Compound: COc1cc2c(ccc(=O)n2CCN[C@H]2CC[C@H]3[C@H](C2)OC(=O)N3c2ccc3c(n2)NC(=O)CO3)cn1
- MIC (Acinetobacter baumannii): 0.5 µg/mL (≈ 0.987 µM)
- MIC (Klebsiella pneumoniae): 32 µg/mL (≈ 63.2 µM)
- MIC (Pseudomonas aeruginosa): 16 µg/mL (≈ 31.6 µM)
- MIC (Escherichia coli [2]): 2 µg/mL (≈ 3.95 µM)
- MIC (Escherichia coli [3]): 0.06 µg/mL (≈ 0.118 µM)
- MIC (Staphylococcus aureus): 0.5 µg/mL (≈ 0.987 µM)
- inhibition at 100 µM (hERG (KCNH2)): 83%
- logD [5]: 1.69

Compound: N#Cc1ccc2c(ccc(=O)n2CCN[C@H]2CC[C@H]3[C@H](C2)OC(=O)N3c2ccc3c(n2)NC(=O)CO3)c1
- MIC (Acinetobacter baumannii): 8 µg/mL (≈ 16 µM)
- MIC (Klebsiella pneumoniae): > 64 µg/mL
- MIC (Pseudomonas aeruginosa): > 64 µg/mL
- MIC (Escherichia coli [2]): 4 µg/mL (≈ 7.99 µM)
- MIC (Escherichia coli [3]): 0.06 µg/mL (≈ 0.12 µM)
- MIC (Staphylococcus aureus): 4 µg/mL (≈ 7.99 µM)
- inhibition at 100 µM (hERG (KCNH2)): 56%
- logD [5]: 1.69

Compound: COc1ccc2ccc(=O)n(CCN[C@H]3CC[C@H]4[C@@H](C3)OC(=O)N4c3ccc4c(n3)NC(=O)CO4)c2n1
- IC50 at 24 h [1]: > 8 µg/mL
- MIC (Acinetobacter baumannii): 0.12 µg/mL (≈ 0.237 µM)
- MIC (Klebsiella pneumoniae): 8 µg/mL (≈ 15.8 µM)
- MIC (Pseudomonas aeruginosa): 2 µg/mL (≈ 3.95 µM)
- MIC (Escherichia coli [2]): 0.5 µg/mL (≈ 0.987 µM)
- MIC (Escherichia coli [3]): < 0.008 µg/mL
- MIC (Staphylococcus aureus): 0.03 µg/mL (≈ 0.0592 µM)
- IC50 [4]: 3 µM
- logD [5]: 2
- fraction unbound [14]: 0.878
- fraction unbound [6]: 0.919

Compound: N#Cc1cnc2ccc(=O)n(CCN[C@H]3CC[C@H]4[C@H](C3)OC(=O)N4c3ccc4c(n3)NC(=O)CS4)c2c1
- IC50 at 24 h [1]: > 128 µg/mL
- MIC (Acinetobacter baumannii): 0.12 µg/mL (≈ 0.232 µM)
- MIC (Klebsiella pneumoniae): 16 µg/mL (≈ 30.9 µM)
- MIC (Pseudomonas aeruginosa): 2 µg/mL (≈ 3.86 µM)
- MIC (Escherichia coli [2]): 0.5 µg/mL (≈ 0.966 µM)
- MIC (Escherichia coli [3]): 0.004 µg/mL (≈ 0.00773 µM)
- MIC (Staphylococcus aureus): 0.03 µg/mL (≈ 0.058 µM)
- IC50 [4]: 20 µM
- logD [5]: 1.42

Compound: O=C(O)c1cn(C2CC2)c2cc(N3CCNCC3)c(F)cc2c1=O [CIPROFLOXACIN]
- IC50 [7]: 0.03 µM
- IC50 at 24 h [1]: > 128 µg/mL
